Data on 3 compounds can be found in publication PMC8156061, “Design, Synthesis, and Anticancer Screening for Repurposed Pyrazolo[3,4-d]pyrimidine Derivatives on Four Mammalian Cancer Cell Lines” (Molecules, 2021).

The IC50 is the concentration that gives 50% inhibition.

Each structure is given as a SMILES string.

One data set concerns Caco-2 cells. Nature of the data set: Cell viability, MTT assay, Caco-2. The data set is classed as cell-based, human. The settings on record: for IC50: Homo sapiens. Here is the method: (§1) A (4,5-dimethylthiazol-2-yl)-2,5-diphenyltetrazolium) MTT assay was used for the determination of the cytotoxic effects of three compounds (5, 6, and 7) in vitro (Figure 9). Hela, HT1080, Caco-2, and A549 cells were treated with various concentrations of the compounds employed in the current study (0, 1, 10, 50, 100, 500 µM) for 48 h.
(§2) Figure 9 Normalised percentage cell viability inhibition of compounds 5 and 7, measured by three independent MTT assays in A549 and Caco-2 cell lines and by three independent experiments with crystal violet staining in Hela and HT1080 cell lines. Cells were treated with different concentrations (from 1 and up to 500 µM) of the compounds for 48 h, * = first concentration significant reduction in cell viability in comparison to the control.
(§3) Human fibrosarcoma (HT1080), cervical cancer (Hela), colorectal cancer (Caco-2), and human lung cancer cell lines (A549) were purchased from […] (ECACC, Salisbury, UK). Cervical cancer cells (Hela) and fibrosarcoma cells (HT-1080) were maintained in a RPMI medium supplemented with 10% foetal bovine serum (FBS) and were expanded at 37 °C and 5% CO2. Caco-2 and A549 cells were grown in Dulbecco’s modified eagle medium (DMEM)-high glucose (biowest, Riverside, MO, USA) enriched with (10% v/v) (foetal bovine serum) FBS (biowest, Riverside, MO, USA) and antibiotics (100 U/mL penicillin, 100 μg mL streptomycin) (Lonza, Basel, Switzerland). Cells were maintained at 37 °C in an incubator with 5% CO2 atmosphere. Part of the experiments were carried out in CERRMA (Center of Excellence for Research in Regenerative Medicine and its Applications), Faculty of Medicine, Alexandria University.
(§4) The cell viability of A549 and Caco-2 cells was measured using MTT assays. Cells were incubated for 48 h in triplicates with the compounds of interest. […] Cells were seeded in 96-well plates at a density of 5 × 10^3 cells/well and were maintained in complete media. After adherence for 48 h, cells were treated with different concentrations of newly synthesized compounds ranging from […]. The plates were incubated at 5% CO2 and 37 °C. After 48 h, the medium was discarded, and cells were incubated with 100 μL MTT (Serva, Heidelberg, Germany) solution (0.5 mg/mL) for 3 h at 5% CO2 and 37 °C. Finally, the reagent was discarded and replaced with 100 μL DMSO. The optical density was measured at a wavelength of 570 nm (Tecan, Infinite F50, Magellan reader control and data analysis software, Mennedov, Switzerland). The percentage cell viability data were obtained by normalization of the optical density (OD) values for all groups to the OD of the control group.
(In general: Tetrazolium assays rely on reduction of a dye to a coloured formazan, in cell work by metabolically active cells.)

In data set [1] the test system is A549 cells. The data set is described as follows: Cell viability, MTT assay, A549. The data set is classed as cell-based, human. The settings on record: for first concentration with significant reduction in cell viability / IC50: A549, 48 h; for first concentration with significant reduction in cell viability: versus control; for IC50: Homo sapiens. On the procedure:
as §1, §2, §3, §4

The subject of the next data set is HT1080 cells. The data set is described as follows: Cell viability, crystal violet staining, HT1080. The data set is classed as cell-based, human. The settings on record: for first concentration with significant reduction in cell viability / IC50: HT1080, 48 h; for first concentration with significant reduction in cell viability: versus control; for IC50: Homo sapiens, HT-1080. Here is the method:
as §1, §2, §3
(§5) Cervical Hela and HT-1080 cells (2 × 10^4 per well) were seeded in 96-well tissue culture plates in 100 μL cell culture medium. Cells were incubated for 48 h in triplicates with the compounds of interest. The cytotoxic effect was assessed by crystal violet staining and measured at 595 nm. To normalize cell viability values each plate included a triplicate of cells treated with DMSO, the vehicle of the compound to calculate 100% viable cells. At the same time, a triplicate of cells was simulated with a cytotoxic combination (200 ng/mL TNF, 200 ng/mL CD95L, 200 ng/mL TRAIL, 25 µg/mL CHX, 1% (w/v) sodium azide) to elucidate maximal cell death, and thus 0% viability. All other viability values were normalized depending on the averages of these triplicates and evaluated by the Graph Pad Prism 5 software (La Jolla, CA, USA).

The next data set relates to male albino rats. Nature of the data set: In vivo toxicity evaluation: serum hepatic and renal biochemical parameters in rats. The conditions noted are these: 20 mg/kg/day orally twice weekly for 6 weeks; for ALP / ALT / AST / Albumin / Bilirubin / Cholesterol / Triglyceride: rat serum; for Overall in vivo toxicity assessment: rats, versus healthy control group. On the set-up: species or system rat. An excerpt:
Before the assessment of the anticancer activity of the compounds, in the present study, we examined their toxicity in vivo on normal tissues.
Male albino rats (150 g average weight) were purchased from the animal house of the Institute of Graduate Studies and Research, Alexandria University, Egypt. The animals were housed under standardized environmental conditions, fed with a standard diet and water, and left to acclimate to the environment for one week prior to inclusion in the experiment. All of the animal experiments were conducted in accordance with the guidelines for the care and use of laboratory animals of the National Institutes of Health (NIH 1985). The experimental procedures employed were ethically reviewed and approved by the Institutional Animal Care and Use Committee (IACUC) of Alexandria University (Ethical approval number of the study: AU14-200922-1-8A) and “declaration of Helsinki”. Four groups of rats were administered 20 mg/kg/day of compounds 5, 6, and 7 orally twice weekly for 6 weeks. Liver enzymes and other liver biomarkers together with creatinine and urea were measured (Table 1).
The collected blood was allowed to clot, the serum was separated at 2000× g, and the biochemical markers of hepatic damage, including serum ALT, AST [33], ALP [34], albumin [35], total bilirubin [36], TG [37], urea, creatinine, and total cholesterol, were estimated according to previously reported methods. These parameters were determined using available commercial kits (ARE) following the instructions of the manufacturer.

The subject of data set [2] is cleaved caspase-3 protein. Nature of the data set: Western blot of cleaved caspase-3 protein expression. The data set is classed as cell-based. The conditions noted are these: IC50 concentration, versus untreated cells. On the procedure: (§6) In order to exclude apoptotic effects as a mechanism for the observed anticancer activity of the compounds and according to the in silico results, induction of apoptosis by compound 7 was examined using an annexin V flow cytometry assay (Figure 10a).
(§7) Figure 10 (a) Apoptosis analysis in A549 cells following treatment of cells with compound 7 at IC50 concentration. Flowcytometry was conducted using Alexa Fluor 488 annexin V conjugate. […] (b) Western blot analysis showing cleaved caspase-3 protein expression level. […] (c) Proliferation analysis (Ki67) in A549 cells following treatment cells with compound 7 at IC50 concentration. The analysis was done using flow cytometry and the Ki-67 FITC antibody.
A western blot assay was carried out to examine cleaved caspase-3 protein expression levels following the different treatments with different concentrations of the compound that were employed in the current study. Cells (5 × 10^5 cells/well) were seeded in 12-well plates and were induced the next day with the compounds of interest for 48 h. […] The proteins of interest were detected with a suitable primary antibody (Anti-Caspase-3, 17,19 kD, Rabbit polyclonal ≠ 9661, from Cell Signaling Technology, Beverly, MA, USA) and horseradish peroxidase conjugated secondary antibodies (Dako, Glostrup, Denmark and Cell Signaling Technology, Beverly, MA, USA).
(In general: In western blotting, separated proteins are transferred to a membrane and probed.)

The subject of data set [3] is Ki67 expression in A549 cells. The data set is described as follows: Proliferation assay, Ki67 expression by flow cytometry. Type of data set: cell-based, human. The settings on record: A549, IC50 concentration, 48 h; control cells 85.61%. Here is the method:
as §7
Ki67 expression was determined using a flow cytometry assay. […] The percentage of cells labelled using Ki67 antibody in the control cells was 85.61%, whereas those labelled with the same antibody following treatment with compound 7 was 68.06%.
For evaluating the proliferation status of cells, cells were plated in 6-well plates at a density of 2 × 10^4 cells per well for the cell proliferation assay. After incubation for 24 h, 70% confluency is reached.
In general terms: A flow cytometer gives signals particle by particle.

A further data set deals with Hela cells. Nature of the data set: Cell viability, crystal violet staining, Hela. Type of data set: cell-based, human. The conditions noted are these: 48 h; for first concentration with significant reduction in cell viability: versus control; for IC50: Homo sapiens, HeLa. On the procedure: as §1, §2, §3, §5
Data set [4] relates to A549 cells. Nature of the data set: Apoptosis assay, annexin V flow cytometry. The data set is classed as cell-based, human. Here is the method: as §6, §7
For evaluating cell apoptosis, cells were plated in 6-well plates at a density of 2 × 10^4 cells per well. After incubation for 24 h, 70% confluency is reached. Cells were then labelled using the FITC Annexin V apoptosis detection kit I (BD Pharminogen, San Diego, CA, USA) according to manufacturer’s instructions (Cell Signaling Technology; Flow Cytometry, Methanol Permeabilization Protocol) and analysed by using BD FACS Calibur flow cytometry and Cell Quest™ software.

The subject of the next data set is BCR-ABL tyrosine kinase. On the set-up: method as in earlier work. The conditions noted are these: literature statement; cited from earlier work.

Regarding `COc1cc(C=NNc2ncnc3c2cnn3-c2ccccc2)cc(OC)c1OC` [Compound 7, 2-(3,4,5-Trimethoxybenzylidene)-1-(1-phenyl-1H-pyrazolo[3,4-d]pyrimidin4yl)hydrazine], the “first concentration with significant reduction in cell viability” value in the data set on Caco-2 cells (Caco-2, 48 h, versus control) turned out to be 1 µM. The IC50 in the data set with Caco-2 cells (Caco-2, 48 h) was 73.1 µM. For the same compound, in the data set on A549 cells [1], the “first concentration with significant reduction in cell viability” value amounted to 1 µM and the concentration for half-maximal inhibition (IC50) came out at 68.8 µM. Further, in the data set on HT1080 cells, the “first concentration with significant reduction in cell viability” value stood at 25 µM and the IC50 stood at 43.8 µM. Also, in the data set on male albino rats, the ALP is listed as 1.8 ± 0.88 U/L, the ALT is listed as 42 ± 7.2 U/L, the AST stood at 103 ± 8.8 U/L and the Albumin is 4.6 ± 1.1 g/dL. Moreover, in the data set with male albino rats, the Bilirubin was 0.11 ± 0.32 mg/dL, the Cholesterol was 71 ± 5.8 mg/dL, the Triglyceride is listed as 77 ± 7.5 mg/dL and the “Overall in vivo toxicity assessment” value is reported as “safe compounds comparable to the healthy control group”. Further, in data set [2], the “change in cleaved caspase-3 protein expression level” value is given as “no significant change”. Further, in data set [3], the “percentage of cells labelled using Ki67 antibody” value was found to be 68.06%. Besides, the “first concentration with significant reduction in cell viability” value with Hela cells (Hela) turned out to be 12.5 µM. For the same compound, in the data set on Hela cells, the IC50 was determined as 17.5 µM. For the same compound, in the data set on A549 cells [4] (A549, 24 h incubation, versus untreated group), the “effect on viability of cells through apoptosis” value was “no significant effect”. Moreover, in the data set with A549 cells [4] (A549, IC50 concentration, control untreated 97.8), the “percentage gating in the lower left quadrant (annexin V)” value worked out at 97.58%.

Regarding `COc1ccc(/C=N/Nc2ncnc3c2cnn3-c2ccccc2)cc1OC` [Compound 6], the “effect on cell viability” value with Caco-2 cells (Caco-2, up to 500 µM, 48 h, data not shown) was “did not show any significant decrease in the cell viability”. Also, in the data set with A549 cells [1] (A549, up to 500 µM, 48 h, data not shown), the “effect on cell viability” value is given as “did not show any significant decrease in the cell viability”. The “effect on cell viability” value in the data set with HT1080 cells (HT1080, up to 500 µM, 48 h, data not shown) is “did not show any significant decrease in the cell viability”. Besides, in the data set with male albino rats, the ALP was 2 ± 0.12 U/L, the ALT was found to be 44 ± 5.7 U/L, the AST turned out to be 100 ± 9.8 U/L and the Albumin is 4.6 ± 1.8 g/dL. Also, in the data set on male albino rats, the Bilirubin is 0.12 ± 0.12 mg/dL, the Cholesterol is on record as 69 ± 7.8 mg/dL, the Triglyceride came to 75 ± 6.5 mg/dL and the “Overall in vivo toxicity assessment” value is recorded as “safe compounds comparable to the healthy control group”. The “inhibition of BCR-ABL tyrosine kinase” value in the data set with BCR-ABL tyrosine kinase is listed as “capable of inhibiting BCR-ABL tyrosine kinase”. Besides, the “effect on cell viability” value in the data set on Hela cells (Hela, up to 500 µM, data not shown) is listed as “did not show any significant decrease in the cell viability”.

For `COc1ccc(C=NNc2ncnc3c2cnn3-c2ccccc2)cc1` [Compound 5, 2-(4-Methoxybenzylidene)-1-(1-phenyl-1H-pyrazolo[3,4-d]pyrimidin-4-yl)hydrazine], in the data set on Caco-2 cells (Caco-2, 48 h), the IC50 turned out to be 76.9 µM. In the data set on A549 cells [1], the “first concentration with significant reduction in cell viability” value came out at 50 µM and the IC50 was determined as 148 µM. In the data set on HT1080 cells, the “first concentration with significant reduction in cell viability” value came out at 50 µM and the IC50 was determined as 96.2 µM. Besides, in the data set with male albino rats, the ALP stood at 2.1 ± 0.52 U/L, the ALT stood at 43 ± 5.2 U/L, the AST amounted to 102 ± 8.7 U/L and the Albumin came out at 4.4 ± 0.37 g/dL. In the data set with male albino rats, the Bilirubin turned out to be 0.11 ± 0.12 mg/dL, the Cholesterol turned out to be 71 ± 4.8 mg/dL, the Triglyceride was 72 ± 8.6 mg/dL and the “Overall in vivo toxicity assessment” value is reported as “safe compounds comparable to the healthy control group”. In addition, in the data set with Hela cells (Hela), the “first concentration with significant reduction in cell viability” value is 50 µM. Further, the IC50 in the data set with Hela cells is 74.8 µM.
